Source: patent US20230381142A1, “ANTILEISHMANIAL COMPOUNDS, COMPOSITIONS AND USE THEREOF” (TRUSTEES OF BOSTON UNIVERSITY, priority 2022, published 2023)
In brackets after ≈: the same amount, converted by molar mass.

How the values were obtained:
[1] = test system: L. donovani intracellular amastigotes infecting THP-1 macrophages; test: GSK intramacrophage L. donovani assay (LD AMMAC, inMac; Assay Conditions C); type: cell-based; conditions: Leishmania donovani; growth inhibition of L. donovani intracellular amastigotes infecting THP-1 macrophages; read-out: LD AMMAC EC50
Outline: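 L. donovani amastigotes within THP-1 macrophages; EC50 based on average intracellular amastigotes per infected cell (AMMAC). Infected-cell percentage (INFCELL) and host-cell number (MAC) also read, the latter as toxicity output.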

host THP-1 macrophages = test: GSK inMac assay, host cell toxicity readout (LD MAC); type: cell-based, human; conditions: Homo sapiens, THP-1, cytotoxicity against host THP-1 macrophages
Outline: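 Intramacrophage L. donovani assay in THP-1 macrophages; host toxicity taken from host cell number per well, giving MAC EC50. Run alongside amastigote-per-cell and infected-cell readouts in the same wells.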

HepG2 cells = test: HepG2 cytotoxicity; type: cell-based; conditions: Homo sapiens; toxicity against HepG2 cells
Protocol: Given the literature precedents described above and the apparent narrow tolerance for R^3 substitutions observed in the primary screen compounds, a thorough and methodical assessment was undertaken of tolerated groups at the three points of diversity (R^1/R^2/R^3) for the core. At this stage of the project, all analogues were assessed using a battery of assays performed in-house at GlaxoSmithKline. For antileishmanial activity, GSK's inMac assay was utilized. This assay provides two readouts of compound potency: average number of intracellular amastigotes per infected cell (AMMAC) EC50, percentage of infected cells per well (INFCELL) EC50, as well as a toxicity output derived from the number of host cells (MAC EC50). In addition, compounds were assessed for toxicity against HepG2 cells (HEPG2 EC50). Here, AMMAC EC50 values were focused on for relative potency assessments. […] It should be noted that for all compounds assessed in this project, the measured toxicity against THP-1 macrophages either equaled or exceeded that of HepG2 hepatocytes, therefore the MAC SI is used here as the more conservative estimate of therapeutic index.

[2] = Kinetic aqueous solubility by CLND; type: physicochemical; conditions: kinetic from dmso stock, high-throughput CLND
Protocol: Solubility of compounds using ChemiLuminescent Nitrogen Detection (CLND) was measured as described. Solubility of compounds using Charged Aerosol Detection (CAD) was measured as described. Solubility of solid compounds in Fasted Simulated Intestinal Fluid (FaSSIF) was measured as described.

[3] = Artificial membrane permeability (AMP); type: in vitro ADME; conditions: PAMPA, pH 7.4
Protocol: Passive permeability of compounds via rate of permeation through an artificial phospholipid membrane at pH 7.4 was measured in a high-throughput format, in duplicate. A solution of 1.8% phosphatidylcholine in 1% decane was added to a 96-well Millicell filter plate along with 250 μL of 50 mM phosphate buffer, pH 7.4 on the donor side, and 100 μL of the same buffer solution on the receiver side. The assay plate was shaken for 45 minutes before adding test compounds. Test compounds were then added to the filter plate and then incubated at room temperature with shaking for three hours. The donor and receiver solutions were next transferred to a 384-well plate for analysis by LC/MS.

human serum albumin = human serum albumin (Homo sapiens, UniProt P02768); test: Human serum albumin (HSA) binding, chromatographic; type: in vitro ADME
Protocol: The percentage of compound bound to human serum albumin was measured using a chromatographic method as described. Briefly, each compound was assayed on an immobilized HSA column and gradient retention times measured, with chromatographic peak detection by UV. Each retention time was then converted to a % HSA bound value using a calibration set of compounds with a known % HSA binding.

[4] = Property forecast index (PFI = ChromLogD7.4 + aromatic rings); type: physicochemical
Protocol: At the outset of the project, compound 1 was evaluated against GSK's established criteria for antileishmanial compound advancement (Table 2). Some of these assessments were performed on racemic 1, while chiral separation was also pursued of the 1 racemate to determine the active enantiomer. […] Based on this promising profile, it progressed into medicinal chemistry optimization to better understand structure-activity relationships (SAR) toward improved potency, as well as structure-property relationships (SPR) with an eye toward reducing PFI and plasma protein binding.

[5] = aqueous medium (not further specified)

human serum albumin, sequence (P02768 25-609): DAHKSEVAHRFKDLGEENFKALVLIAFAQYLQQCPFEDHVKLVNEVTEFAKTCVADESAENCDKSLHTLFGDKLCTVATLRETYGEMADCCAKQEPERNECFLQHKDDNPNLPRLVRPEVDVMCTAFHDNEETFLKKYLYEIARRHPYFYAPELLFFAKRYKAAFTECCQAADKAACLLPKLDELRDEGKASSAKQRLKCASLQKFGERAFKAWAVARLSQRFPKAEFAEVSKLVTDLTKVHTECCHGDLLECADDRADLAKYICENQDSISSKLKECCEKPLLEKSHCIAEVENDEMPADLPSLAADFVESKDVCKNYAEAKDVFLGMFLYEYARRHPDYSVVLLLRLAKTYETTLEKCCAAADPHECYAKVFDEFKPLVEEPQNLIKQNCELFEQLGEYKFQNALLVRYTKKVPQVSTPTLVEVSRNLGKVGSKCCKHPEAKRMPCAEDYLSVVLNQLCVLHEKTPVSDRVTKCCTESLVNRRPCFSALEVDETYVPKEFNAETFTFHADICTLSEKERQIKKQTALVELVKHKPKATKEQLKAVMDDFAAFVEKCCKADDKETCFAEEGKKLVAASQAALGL

Structure (SMILES) | EC50 [1] [µM] | EC50 (host THP-1 macrophages) [µM] | EC50 (HepG2 cells) [µM] | solubility [2, 5] [µM] | Papp at 3 h [3] [×10⁻⁶ cm/s] | HSA Binding (human serum albumin) [%] | PFI [4] | solubility ([2]; aqueous medium) [µM]
COCCN1C(=O)c2[nH]nc(CC(C)C)c2C1c1ccc(F)cc1 (stereo not shown) [Compound 41] | > 50 | > 50 | > 100 | ≥ 421 | 52 | 90.2 | 6.7 | 
COc1ccc(N2C(=O)c3[nH]nc(CC(C)C)c3C2c2ccc(F)cc2)c(OC)c1 (stereo not shown) [Compound 43] | 20 | 31.6 | 63.1 |  | 17 | 96.2 | 8.5 | 138 (≈ 56.5 µg/mL)
COc1ccc(N2C(=O)c3[nH]nc(CC(C)C)c3C2c2ccc(Cl)cc2)cc1 (stereo not shown) [Compound 47] | 4 | 15.8 | 50.1 | 22 (≈ 8.71 µg/mL) | 33 | 96.9 | 9.2 | 
COc1ccc(N2C(=O)c3[nH]nc(CC(C)C)c3C2c2ccc(Br)cc2)cc1 (stereo not shown) [Compound 48] | 6.3 | 15.8 | 50.1 | 9 (≈ 3.96 µg/mL) | 42 | 97.2 | 9.3 | 
COc1ccc(N2C(=O)c3[nH]nc(CC(C)C)c3C2c2ccc(C(F)(F)F)cc2)cc1 (stereo not shown) [Compound 49] | 8 | 15.8 | 50.1 | 12 (≈ 5.15 µg/mL) | 21 | 96.9 | 9.3 | 
COc1ccc(N2C(=O)c3[nH]nc(CC(C)C)c3C2c2ccc(C(=O)O)cc2)cc1 (stereo not shown) [Compound 50] | > 50 | > 50 | > 100 | ≥ 470 | < 0.3 | 90.7 | 4.5 | 
COC(=O)c1ccc(C2c3c(CC(C)C)n[nH]c3C(=O)N2c2ccc(OC)cc2)cc1 (stereo not shown) [Compound 51] | 25.1 | 39.8 | 63.1 | 44 (≈ 18.5 µg/mL) | 38 | 95 | 8.2 | 
COc1ccc(N2C(=O)c3[nH]nc(CC(C)C)c3C2C2CCCCC2)cc1 (stereo not shown) [Compound 52] | 7.9 | 25.1 | 50.1 | 29 (≈ 10.7 µg/mL) | 33 | 97.6 | 8.5 | 
COc1ccc(N2C(=O)c3[nH]nc(CC(C)C)c3C2C2CCCC2)cc1 (stereo not shown) [Compound 53] | 12.6 | 20 | > 100 | 119 (≈ 42.1 µg/mL) | 59 | 96.3 | 8.1 | 
COc1ccc(N2C(=O)c3[nH]nc(CC(C)C)c3C2c2ccccc2F)cc1 (stereo not shown) [Compound 54] | 3.2 | 31.6 | 31.6 | 75 (≈ 28.5 µg/mL) | 23 | 97.3 | 8.6 | 
COc1ccc(N2C(=O)c3[nH]nc(CC(C)C)c3C2c2ccccc2Br)cc1 (stereo not shown) [Compound 56] | 0.5 | 25.1 | 39.8 | 12 (≈ 5.28 µg/mL) | 30 | 97.1 | 9.2 | 
COc1ccc(N2C(=O)c3[nH]nc(CC(C)C)c3C2c2ccccc2OC)cc1 (stereo not shown) [Compound 57, 3-isobutyl-4-(2-methoxyphenyl)-5-(4-methoxyphenyl)-4,5-dihydropyrrolo[3,4-c]pyrazol-6(1H)-one] | 0.5 | 25.1 | 6.3 | 57 (≈ 22.3 µg/mL) | 35 | 95.7 | 8.6 | 
COc1ccc(N2C(=O)c3[nH]nc(CC(C)C)c3C2c2cccc(F)c2)cc1 (stereo not shown) [Compound 58] | 5 | 12.6 | 50.1 | 91 (≈ 34.5 µg/mL) | 37 | 96.9 | 8.3 | 
COc1ccc(N2C(=O)c3[nH]nc(CC(C)C)c3C2c2cccc(Cl)c2)cc1 (stereo not shown) [Compound 59] | 7.9 | 39.8 | 39.8 | 19 (≈ 7.52 µg/mL) | 28 | 96.8 | 9.0 | 
COc1ccc(N2C(=O)c3[nH]nc(CC(C)C)c3C2c2cccc(Br)c2)cc1 (stereo not shown) [Compound 60] | 7.9 | 25.1 | 39.8 | 10 (≈ 4.4 µg/mL) | 37 | 97 | 9.1 | 
COc1ccc(N2C(=O)c3[nH]nc(CC(C)C)c3C2c2cccc(OC)c2)cc1 (stereo not shown) [Compound 61] | 4 | 20 | 63.1 | 63 (≈ 24.7 µg/mL) | 29 | 95 | 8.4 | 
COc1ccc(N2C(=O)c3[nH]nc(CC(C)C)c3C2c2cccc(C(F)(F)F)c2)cc1 (stereo not shown) [Compound 62] | 6.3 | 15.8 | 50.1 | 20 (≈ 8.59 µg/mL) | 22 | 97.8 | 8.9 | 
COc1ccc(N2C(=O)c3[nH]nc(CC(C)C)c3C2c2ccc(F)cc2F)cc1 (stereo not shown) [Compound 63] | 2 | 25.1 | 63.1 | 52 (≈ 20.7 µg/mL) | 14 | 96.1 | 8.8 | 
COc1ccc(N2C(=O)c3[nH]nc(CC(C)C)c3C2c2ccc(F)cc2C)cc1 (stereo not shown) [Compound 64, 4-(4-fluoro-2-methylphenyl)-3-isobutyl-5-(4-methoxyphenyl)-4,5-dihydropyrrolo[3,4-c]pyrazol-6(1H)-one] | 0.5 | 25.1 | 50.1 | 43 (≈ 16.9 µg/mL) | 11 | 97.2 | 8.8 | 
